“Also recorded” adds a separate entry of the source.
Tests used:
fet3Δftr1Δ yeast [1] = test: Fe3+ uptake assay in yeast; type: cell-based, Saccharomyces cerevisiae
Method: Iron (III) uptake into wild type and fet3Δftr1Δ yeast was adapted from Kosman and coworkers (56). Overnight yeast cultures were repeatedly centrifuged and rinsed with water. The cell pellet was resuspended in MilliQ water, and diluted in SD media without FeCl3. The cells were incubated at 30° C. for 3 hours, centrifuged and rinsed with water twice. The cells were then suspended to 3×10^7 cells/mL in SD media containing 50 mM sodium citrate and 2% glucose. Hinokitiol or C2deOHino (from 40X stocks in DMSO) was added to a final concentration of 100 μM before ^55FeCl3 ([…]) was added to the yeast suspensions. The suspension was continuously homogenized before aliquots were taken and diluted with 10 mL of room temperature water. Cells were then collected via vacuum filtration through a 0.45 μm nitrocellulose filter (Millipore HAWP), and rinsed with room temperature water (×5 of 100 mL). The filters were then transferred to a scintillation vial containing 3 mL of scintillation cocktail for measuring radioactivity using a liquid scintillation counter.

fet3Δftr1Δ yeast [2] = test: Growth rescue of fet3Δftr1Δ yeast with small molecules in liquid media; type: cell-based, Saccharomyces cerevisiae; settings: liquid low iron SD media, 10 μM FeCl3
Method: Growth rescue in yeast was performed similar to previously reported (20) using 10 μM hinokitiol in low iron SD liquid media containing 10 μM FeCl3 in a 96-well plate unless otherwise noted. Wild type and fet3Δftr1Δ controls treated with vehicle (DMSO) were performed under identical conditions using the same low iron SD media containing 10 μM FeCl3 in the absence of hinokitiol. Yeast were grown overnight in YPD media and diluted at an OD600 of 0.1 in SD media, diluted 10-fold, and incubated at 30° C. with continuous shaking (200 rpm). The OD600 was obtained 24-48 hours after inoculation unless otherwise noted.
Small molecule dose-response (FIG. 1F) with hinokitiol and C2-deoxy hinokitiol (C2deOHino, see synthesis below) was determined by addition of the small molecule (40X stock solution in DMSO) to give the indicated final concentrations.

DMT1-deficient MEL cells = test: Differentiation and hemoglobinization of DMT1-deficient MEL cells; type: cell-based, mouse; settings: 1 μM, three days
Method: (§1) Differentiation of MEL Cells with DMSO (FIG. 3D) To perform differentiation experiments with MEL cells (39), the indicated MEL cells were diluted to 1×10^5 cells/mL in MEL Complete media containing 10 μM iron (III) citrate and 2% DMSO in the absence or presence of 1 μM hinokitiol or C2deOHino (added from 1000X stock in DMSO) in 12-well plates. Cells were then incubated at 37° C. for 72 hours unless otherwise noted.
Hemoglobinized MEL cells were quantified three days after DMSO induction through o-dianisidine staining similar to previously reported (74). Cells were centrifuged three days after induction and rinsed with PBS. The cells were then suspended in a solution containing 7.5 mM o-dianisidine, 900 mM H2O2, and 150 mM acetic acid in water at ˜1×10^6 cells/mL. Cells were then imaged on an AXIO Zoom V16 microscope to obtain color images. The number of stained cells were then quantified via ImageJ analysis and compared to the number of total cells in each image. To determine that hinokitiol requires DMSO induction for hemoglobinization, 2% DMSO was not added at the beginning of the experiment before a 72-hour incubation and o-dianisidine staining.
MEL cells were induced for differentiation as described above and incubated at 37° C. for 70 hours before addition of a saturated iron-transferrin (^55Fe2Tf) solution (40 nM final concentration from a 10 μM ^55Fe2Tf stock). The cells were incubated for an additional two hours. After completion, the cells were counted with a hemocytometer, the media was removed after centrifugation, the cells were rinsed with PBS (×3), and the cell suspension was diluted in scintillation cocktail and radioactivity was determined. […] The cells were incubated for an additional eight hours. After completion, the cells were counted with a hemocytometer, the media was removed after centrifugation, and the cells were rinsed with PBS (×3). The cells were then lysed with RIPA buffer, diluted with water, and heme was extracted using a 3:1 ethyl acetate:acetic acid solution. An aliquot of the organic extract was diluted in scintillation cocktail and radioactivity was determined. Radioactive levels were normalized per cell (counted by hemocytometer) relative to wild type (DS19) levels.
MEL cells were induced for differentiation as described above and incubated at 37° C. for 72 hours. After completion, the cells were counted with a hemocytometer, the media was removed after centrifugation, and cells were rinsed with PBS (×2). The cells were then lysed through repeated freeze/thaw cycles with water, and hemoglobin levels per 10^6 cells were determined as previously described (77) by determining the OD415 after centrifugation. Globin levels by western blot were determined after differentiation as described above. After incubation for 72 hours, cells were lysed and globin levels were determined by western blot as described above.

[3] = Iron efflux from liposomes using ferrozine; type: biochemical; settings: for transport of ferrous and ferric iron across model liposomal membranes: 5 μM small molecule; for iron (III) efflux from POPC liposomes: 30 mM FeCl3 inside
Method: Iron (III) efflux from POPC liposomes was determined similar to previously reported (64). POPC liposomes were prepared as similarly reported (65) using 30 mM FeCl3, 62.5 mM citrate at pH=7.0 in 25 mM Mes/Tris buffer. External iron was removed by size exclusion chromatography using Sephadex G-50 and eluting with external buffer. External buffer consisted of 62.5 mM ascorbate at pH=7.0 in 25 mM Mes/Tris buffer. The liposomes were diluted to 1 mM phosphorus in this buffer. Ferrozine (Sigma 160601) was added (100X stock in external buffer) to a final concentration of 500 μM. Liposomal suspension was then transferred to a 96-well plate, and either DMSO or 5 μM hinokitiol, C2deOHino, deferiprone, or PIH (40X stock solution in DMSO) were added to initiate the experiment. The OD562 was determined every minute over the course of 2 hours using a plate-reader with continuous shaking at 30° C. to detect the relative amounts of external ferrozine-iron chelate at the indicated times. After 2 hours, liposomes were lysed with Triton-X to give 100% iron efflux.
Iron (II) efflux was performed as described above, however, the internal buffer alternatively consisted of 30 mM FeSO4, 62.5 mM ascorbate at pH=7.0 in 25 mM Mes/Tris buffer and Triton-X lysis was performed after 1 hour.
The rates of iron efflux with increasing concentrations of intraliposomal iron and/or hinokitiol were determined as described above using the indicated concentration of iron and hinokitiol. For the varying concentrations of iron, hinokitiol (10 μM) was added to the POPC liposomes, and the change in absorbance at 562 nm was determined over 2 hours. For the varying concentrations of hinokitiol, 30 mM intraliposomal iron was used as described above. The concentration of iron outside of liposomes was determined using the extinction coefficient for ferrozine-iron (27,900 M^−1 cm^−1) (66). This was used to determine the amount of iron released from liposomes at the indicated times using the total volume for each experiment. Rates of iron efflux were determined after one hour of hinokitiol treatment.

[4] = tested on: Mfrn1-deficient MEL cells; test: Hemoglobinization of Mfrn1-deficient MEL cells; type: cell-based, mouse; settings: 1 μM
Method: as §1
Hemoglobinized MEL cells were quantified three days after DMSO induction through o-dianisidine staining similar to previously reported (74). Cells were centrifuged three days after induction and rinsed with PBS. […] The number of stained cells were then quantified via ImageJ analysis and compared to the number of total cells in each image. […]
MEL cells were induced for differentiation as described above and incubated at 37° C. for 70 hours before addition of a saturated iron-transferrin (^55Fe2Tf) solution (40 nM final concentration from a 10 μM ^55Fe2Tf stock). […] After completion, the cells were counted with a hemocytometer, the media was removed after centrifugation, the cells were rinsed with PBS (×3), and the cell suspension was diluted in scintillation cocktail and radioactivity was determined. […] After completion, the cells were counted with a hemocytometer, the media was removed after centrifugation, and the cells were rinsed with PBS (×3). […]

In the case of `CC(C)c1cccc(=O)cc1` [C2deOHino, C2-deoxy hinokitiol], the “55Fe uptake into fet3Δftr1Δ yeast” value (fet3Δftr1Δ yeast [1]) is reported as “no uptake up to 100 μM”, the “restoration of fet3Δftr1Δ yeast growth, small molecule dose-response” value (“restoration of fet3Δftr1Δ yeast growth” below) (fet3Δftr1Δ yeast [2]) is reported as “no biological activity; also recorded: does not” and the 55Fe uptake (DMT1-deficient MEL cells) is reported as “no effect”. For the same compound, the 55Fe-heme incorporation (DMT1-deficient MEL cells) was “no effect”, the hemoglobinization (DMT1-deficient MEL cells) was “no effect” and the “transport of ferrous and ferric iron across model liposomal membranes” value [3] was “minimal transport”. The “iron (III) efflux from POPC liposomes” value [3] was “no efflux up to 100 μM” and the hemoglobinization [4] was “no effect”.

In the case of `CC(C)c1cccc(=O)c(O)c1` [hinokitiol], the “55Fe uptake into fet3Δftr1Δ yeast” value (fet3Δftr1Δ yeast [1]) is reported as “dose-dependent increase in ^55Fe uptake from 5 to 100 μM”, the “restoration of fet3Δftr1Δ yeast growth” value (fet3Δftr1Δ yeast [2]) is reported as “dose-dependently restores yeast growth” and the “restoration of fet3Δftr1Δ yeast growth” value (fet3Δftr1Δ yeast [2]; listed as Hinokitiol) is reported as “rescues growth of iron transporter-deficient yeast (Fet3Ftr1) at low concentrations”. The 55Fe uptake (DMT1-deficient MEL cells) was “restored”, the 55Fe-heme incorporation (DMT1-deficient MEL cells) was “restored” and the hemoglobinization (DMT1-deficient MEL cells) was “restored”. For the same compound, the “transport of ferrous and ferric iron across model liposomal membranes” value [3] was “autonomously transports both ferrous and ferric iron”, the “iron (III) efflux from POPC liposomes” value [3] was “dose- and temperature-dependently promoted iron (III) efflux” and the hemoglobinization [4] was “restored hemoglobinization”.

Reference: US12084411B2, “Hinokitiol analogues, methods of preparing and pharmaceutical compositions thereof” (The Board of Trustees of the University of Illinois, priority 2018, dated 2024)
